Results: patent publication US7601687B2, “Mechanism for identifying drugs for the treatment of type II diabetes” (BioCrine AB, priority 2006, dated 2009)

Columns and labels:
insulin mRNA = test: Endogenous insulin mRNA levels in isolated islets of wild type and βIRKO mice; type: cell-based, mouse; conditions: 16.7 mM glucose or 5 mU insulin/ml
Protocol: (§1) RNA was prepared 60 min after start of stimulation. Amounts of insulin, βGK and β-actln mRNA were quantified by comparative RT-PCR. […] Data are shown as mean values ± S.E. (n=3). (B-D) On-line monitoring of βGK promoter-driven GFP expression (white bars) and insulin promoter-driven DsRed expression (black bars) in co-transfected HIT cells (B,C) or islet cells (B,D).
(§2) Insulin-producing HIT-T15 cells were obtained from ATCC. HIT cells were reported to show glucose responsiveness at subphysiological concentrations between 0.1 and 2 mM (Sharma et al., 1995). HIT cells were grown in RPMI 1640 medium supplemented with 100 units/ml penicillin, 100 μg/ml streptomycin, 2 mM glutamine and 10% fetal calf serum at 5% CO2 and 37° C. Pancreatic islets were isolated from normally fed male Wistar rats and from mice by collagenase digestion. […]
(§3) RNA Analysis Levels of βGK mRNA were analyzed by RNase-protection assays and comparative RT-PCR. […] Quantification of the protected complexes was performed by phosphorimaging. […] Levels of μGK mRNA were analyzed by RT-PCR using primers 5′-[…]-3′(SEQ ID NO: 1) and 5′-[…]-3′(SEQ ID NO: 2) for characterizing μGK mRNA in HIT cells and primers 5′-[…]-3′(SEQ ID NO: 3) and 5′-[…]-3′(SEQ ID NO: 4) for μGK mRNA in rat and mouse pancreatic islets and islet cells. Levels of μ-actin mRNA were analyzed by RT-PCR using primers 5′-[…]-3′(SEQ ID NO: 5) and 5′-[…]-3′(SEQ ID NO: 6). […]

βGK mRNA = test: Endogenous βGK mRNA levels in isolated islets of wild type and βIRKO mice; type: cell-based, mouse; conditions: 16.7 mM glucose or 5 mU insulin/ml
Protocol: as §1, §2, §3

rat βGK promoter = test: βGK promoter-driven GFP expression in co-transfected human islet cells; type: cell-based; conditions: 5 mU/ml insulin for 5 min, sub-stimulatory glucose
Protocol: Data are presented as the ratio of fluorescence obtained at minutes 240 and 60 and represent mean values ±S.E. (n=11).
Detection of fluorescence by digital imaging fluorescence microscopy was performed as described previously (Leibiger et al., 1998a; Leibiger et al., 1998b). Briefly, transfected cells were grown on 24-mm glass coverslips. After stimulation the coverslips were placed into a perifusion chamber which was mounted on an inverted microscope (Zeiss Axiovert 135TV). Temperature was kept at 37° C. and the cells were perfused with RPMI 1640 medium. The objective lens used was a Zeiss-Fluar ×40/1.30 oil Imm Korr. Fluorescence imaging was performed with a cooled charged-coupled device camera (CH250 with KAF 1400, Photometrics, Tucson, Ariz.) connected to an imaging system (Inovision) with fluorescence excitation from a SPEX fluorolog-2 CM1T11I spectrofluorometer (Spex Industries). […]
On-line monitoring was initiated 60 min following the start of stimulation and the 60-min value of GFP- or DsRed-fluorescence was set to 1.0. Cells to be monitored were chosen randomly at minute 60 from six fields of vision and fluorescence was monitored up to minute 240. By overlaying the fluorescence and phase-contrast images, the position of cells on the coverslip could be checked. Fluorescence intensity was calculated by using the ISee-software for UNIX (Inovision Corporation).

## insulin
Insulin mRNA; islets from βIRKO mice
  endogenous insulin mRNA levels upon stimulation: no increase
Insulin mRNA; islets of wild type mice
  endogenous insulin mRNA levels upon stimulation: increase
βGK mRNA; islets from βIRKO mice
  endogenous βGK mRNA levels upon stimulation: no increase
βGK mRNA; islets of wild type mice
  endogenous βGK mRNA levels upon stimulation: increase
Rat βGK promoter
  βGK promoter-driven GFP expression upon insulin stimulation: up-regulation
